# Measured values from patent US11117900B2 (Vertex Pharmaceuticals Incorporated, priority 2012, dated 2021).
# Tested on: HCT116 colorectal cancer cells
# Assay: Cisplatin sensitization assay (96 h MTS cell viability);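 further: compound concentration needed to lower the IC50 of Cisplatin alone by a set fold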
# Type: cell-based
# Conditions: Cisplatin sensitization value
# Procedure: Compounds can be screened for their ability to sensitize HCT116 colorectal cancer cells to Cisplatin using a 96 h cell viability (MTS) assay. […] Compounds and Cisplatin are then both added simultaneously to the cell media in 2-fold serial dilutions from a top final concentration of 10 μM as a full matrix of concentrations in a final cell volume of 200 μl, and the cells are then incubated at 37° C. in 5% CO2. After 96 h, 40 μl of MTS reagent (Promega G358a) is added to each well and the cells are incubated for 1 h at 37° C. in 5% CO2.
# Compounds with a Cisplatin sensitization value of <0.02 μM are marked with “+++.” Compounds with a Cisplatin sensitization value >0.02 μM but <0.2 μM are marked with “++.” Compounds with a Cisplatin sensitization value >0.2 μM but <5 μM are marked with “+.”
row,SMILES,Cisplatin Sensitization Assay
1,"Nc1nn2cc(F)cnc2c1C(=O)Nc1cnccc1C1CCN(C(=O)C23CCN(CC2)CC3)CC1 [I-C-18, 2-amino-6-fluoro-N-(4-(1-(quinuclidine-4-carbonyl)piperidin-4-yl)pyridin-3-yl)pyrazolo[1,5-a]pyrimidine-3-carboxamide]",+ (Compounds with a Cisplatin sensitization value >0.2 μM but <5 μM are marked with “+.”)
2,"CN1CCN(C(=O)c2ccc(-c3ccncc3NC(=O)c3c(N)nn4cc(F)cnc34)cn2)CC1 [I-C-19, 2-amino-6-fluoro-N-(6-(4-methylpiperazine-1-carbonyl)-[3,4′-bipyridin]-3′-yl)pyrazolo[1,5-a]pyrimidine-3-carboxamide]",++ (Compounds with a Cisplatin sensitization value >0.02 μM but <0.2 μM are marked with “++.”)
3,"Cc1ncccc1-c1ccncc1NC(=O)c1c(N)nn2cc(F)cnc12 [I-C-20, 2-amino-6-fluoro-N-(2-methyl-[3,4′-bipyridin]-3′-yl)pyrazolo[1,5-a]pyrimidine-3-carboxamide]",+++ (Compounds with a Cisplatin sensitization value of <0.02 μM are marked with “+++.”)
4,"CN1CCN(c2ccc(-c3ccncc3NC(=O)c3c(N)nn4cc(F)cnc34)cn2)CC1 [I-C-21, 2-amino-6-fluoro-N-(6-(4-methylpiperazin-1-yl)-[3,4′-bipyridin]-3′-yl)pyrazolo[1,5-a]pyrimidine-3-carboxamide]",+++ (Compounds with a Cisplatin sensitization value of <0.02 μM are marked with “+++.”)
5,"Cc1ccc(-c2ccncc2NC(=O)c2c(N)nn3cc(F)cnc23)cn1 [I-C-22, 2-amino-6-fluoro-N-(6-methyl-[3,4′-bipyridin]-3′-yl)pyrazolo[1,5-a]pyrimidine-3-carboxamide]",++ (Compounds with a Cisplatin sensitization value >0.02 μM but <0.2 μM are marked with “++.”)
6,"CN1CCC(c2ccncc2NC(=O)c2c(N)nn3cc(C(C)(C)C#N)cnc23)CC1 [I-C-23, 2-amino-6-(2-cyanopropan-2-yl)-N-(4-(1-methylpiperidin-4-yl)pyridin-3-yl)pyrazolo[1,5-a]pyrimidine-3-carboxamide]",+ (Compounds with a Cisplatin sensitization value >0.2 μM but <5 μM are marked with “+.”)
7,"Nc1nn2cc(F)cnc2c1C(=O)Nc1cnccc1-c1ccncc1 [I-C-24, N-([4,4′-bipyridin]-3-yl)-2-amino-6-fluoropyrazolo[1,5-a]pyrimidine-3-carboxamide]",+++ (Compounds with a Cisplatin sensitization value of <0.02 μM are marked with “+++.”)
8,"CN1CCN(C(=O)c2ccc(-c3ccncc3NC(=O)c3c(N)nn4cc(F)cnc34)cc2)CC1 [I-C-25, 2-amino-6-fluoro-N-(4-(4-(4-methylpiperazine-1-carbonyl)phenyl)pyridin-3-yl)pyrazolo[1,5-a]pyrimidine-3-carboxamide]",+++ (Compounds with a Cisplatin sensitization value of <0.02 μM are marked with “+++.”)
9,"Nc1nn2cc(F)cnc2c1C(=O)Nc1cnccc1-c1ccnnc1 [I-C-26, 2-amino-6-fluoro-N-(4-(pyridazin-4-yl)pyridin-3-yl)pyrazolo[1,5-a]pyrimidine-3-carboxamide]",++ (Compounds with a Cisplatin sensitization value >0.02 μM but <0.2 μM are marked with “++.”)
10,"COc1ccc(-c2ccncc2NC(=O)c2c(N)nn3cc(F)cnc23)cn1 [I-C-27, 2-amino-6-fluoro-N-(6-methoxy-[3,4′-bipyridin]-3′-yl)pyrazolo[1,5-a]pyrimidine-3-carboxamide]",++ (Compounds with a Cisplatin sensitization value >0.02 μM but <0.2 μM are marked with “++.”)
11,"Cc1cnccc1-c1ccncc1NC(=O)c1c(N)nn2cc(F)cnc12 [I-C-29, 2-amino-6-fluoro-N-(3′-methyl-[4,4′-bipyridin]-3-yl)pyrazolo[1,5-a]pyrimidine-3-carboxamide]",+++ (Compounds with a Cisplatin sensitization value of <0.02 μM are marked with “+++.”)
12,"Cc1ccncc1-c1ccncc1NC(=O)c1c(N)nn2cc(F)cnc12 [I-C-30, 2-amino-6-fluoro-N-(4-methyl-[3,4′-bipyridin]-3′-yl)pyrazolo[1,5-a]pyrimidine-3-carboxamide]",+++ (Compounds with a Cisplatin sensitization value of <0.02 μM are marked with “+++.”)
13,"Cc1nnccc1-c1ccncc1NC(=O)c1c(N)nn2cc(F)cnc12 [I-C-31, 2-amino-6-fluoro-N-(4-(3-methylpyridazin-4-yl)pyridin-3-yl)pyrazolo[1,5-a]pyrimidine-3-carboxamide]",+++ (Compounds with a Cisplatin sensitization value of <0.02 μM are marked with “+++.”)
14,"Cc1ccnnc1-c1ccncc1NC(=O)c1c(N)nn2cc(F)cnc12 [I-C-33, 2-amino-6-fluoro-N-(4-(4-methylpyridazin-3-yl)pyridin-3-yl)pyrazolo[1,5-a]pyrimidine-3-carboxamide]",+ (Compounds with a Cisplatin sensitization value >0.2 μM but <5 μM are marked with “+.”)
15,"Cc1nc(F)ccc1-c1ccncc1NC(=O)c1c(N)nn2cc(F)cnc12 [I-C-34, 2-amino-6-fluoro-N-(6-fluoro-2-methyl-[3,4′-bipyridin]-3′-yl)pyrazolo[1,5-a]pyrimidine-3-carboxamide]",+++ (Compounds with a Cisplatin sensitization value of <0.02 μM are marked with “+++.”)
16,"Nc1nn2cc(F)cnc2c1C(=O)Nc1cnccc1-c1cccnc1F [I-C-35, 2-amino-6-fluoro-N-(2-fluoro-[3,4′-bipyridin]-3′-yl)pyrazolo[1,5-a]pyrimidine-3-carboxamide]",+++ (Compounds with a Cisplatin sensitization value of <0.02 μM are marked with “+++.”)
17,"Cc1cccnc1-c1ccncc1NC(=O)c1c(N)nn2cc(F)cnc12 [I-C-36, 2-amino-6-fluoro-N-(3-methyl-[2,4′-bipyridin]-3′-yl)pyrazolo[1,5-a]pyrimidine-3-carboxamide]",+++ (Compounds with a Cisplatin sensitization value of <0.02 μM are marked with “+++.”)
18,"Nc1nn2cc(F)cnc2c1C(=O)Nc1cnccc1-c1cccnc1Cl [I-C-37, 2-amino-N-(2-chloro-[3,4′-bipyridin]-3′-yl)-6-fluoropyrazolo[1,5-a]pyrimidine-3-carboxamide]",+++ (Compounds with a Cisplatin sensitization value of <0.02 μM are marked with “+++.”)
19,"CN1CCC(C(=O)N2CC=C(c3c(F)cncc3NC(=O)c3c(N)nn4cc(F)cnc34)CC2)CC1 [I-C-38, 2-amino-6-fluoro-N-(5-fluoro-1′-(1-methylpiperidine-4-carbonyl)-1′,2′,3′,6′-tetrahydro-[4,4′-bipyridin]-3-yl)pyrazolo[1,5-a]pyrimidine-3-carboxamide]",++ (Compounds with a Cisplatin sensitization value >0.02 μM but <0.2 μM are marked with “++.”)
20,"Cc1nc(C(=O)N2CCN(C)CC2)ccc1-c1ccncc1NC(=O)c1c(N)nn2cc(F)cnc12 [I-C-39, 2-amino-6-fluoro-N-(2-methyl-6-(4-methylpiperazine-1-carbonyl)-[3,4′-bipyridin]-3′-yl)pyrazolo[1,5-a]pyrimidine-3-carboxamide]",+++ (Compounds with a Cisplatin sensitization value of <0.02 μM are marked with “+++.”)
21,"Cc1nc(N2CCN(C)CC2)ccc1-c1ccncc1NC(=O)c1c(N)nn2cc(F)cnc12 [I-C-40, 2-amino-6-fluoro-N-(2-methyl-6-(4-methylpiperazin-1-yl)-[3,4′-bipyridin]-3′-yl)pyrazolo[1,5-a]pyrimidine-3-carboxamide]",+++ (Compounds with a Cisplatin sensitization value of <0.02 μM are marked with “+++.”)
22,"Cc1nc(O[C@@H]2CCN(C)C2)ccc1-c1ccncc1NC(=O)c1c(N)nn2cc(F)cnc12 [I-C-41, (R)-2-amino-6-fluoro-N-(2-methyl-6-((1-methylpyrrolidin-3-yl)oxy)-[3,4′-bipyridin]-3′-yl)pyrazolo[1,5-a]pyrimidine-3-carboxamide]",+++ (Compounds with a Cisplatin sensitization value of <0.02 μM are marked with “+++.”)
23,"Nc1nn2cc(F)cnc2c1C(=O)Nc1cnccc1C1CC1 [I-C-42, 2-amino-N-(4-cyclopropylpyridin-3-yl)-6-fluoropyrazolo[1,5-a]pyrimidine-3-carboxamide]",++ (Compounds with a Cisplatin sensitization value >0.02 μM but <0.2 μM are marked with “++.”)
24,"CN1CCN(C(=O)c2ccc(-c3c(F)cncc3NC(=O)c3c(N)nn4cc(F)cnc34)cc2)CC1 [I-C-43, 2-amino-6-fluoro-N-(5-fluoro-4-(4-(4-methylpiperazine-1-carbonyl)phenyl)pyridin-3-yl)pyrazolo[1,5-a]pyrimidine-3-carboxamide]",+++ (Compounds with a Cisplatin sensitization value of <0.02 μM are marked with “+++.”)
25,"Nc1nn2cc(F)cnc2c1C(=O)Nc1cnccc1-c1ccc(C(=O)N2CCNCC2)cc1 [I-C-44, 2-amino-6-fluoro-N-(4-(4-(piperazine-1-carbonyl)phenyl)pyridin-3-yl)pyrazolo[1,5-a]pyrimidine-3-carboxamide]",+++ (Compounds with a Cisplatin sensitization value of <0.02 μM are marked with “+++.”)
26,"Cc1cc(C(=O)N2CCN(C)CC2)ccc1-c1ccncc1NC(=O)c1c(N)nn2cc(F)cnc12 [I-C-45, 2-amino-6-fluoro-N-(4-(2-methyl-4-(4-methylpiperazine-1-carbonyl)phenyl)pyridin-3-yl)pyrazolo[1,5-a]pyrimidine-3-carboxamide]",+++ (Compounds with a Cisplatin sensitization value of <0.02 μM are marked with “+++.”)
27,"CN1CCN(C(=O)c2cnc(-c3ccncc3NC(=O)c3c(N)nn4cc(F)cnc34)c(Cl)c2)CC1 [I-C-46, 2-amino-N-(3-chloro-5-(4-methylpiperazine-1-carbonyl)-[2,4′-bipyridin]-3′-yl)-6-fluoropyrazolo[1,5-a]pyrimidine-3-carboxamide]",+ (Compounds with a Cisplatin sensitization value >0.2 μM but <5 μM are marked with “+.”)
